Values after ≈ are worked out from the molar mass of the structure shown.
Assays:
[1] = Salicylic acid release into artificial sweat; format: physicochemical; conditions: 35° C.
Experimental: FIG. 1 illustrates salicylic acid release at 35° C. Samples of Example 1 (square), Example 2 (triangle) and Comparative Example 1 (diamond) were placed in artificial sweat or artificial sweat plus proteins and incubated at 35° C. for 3 to 5 minutes, 1, 2, 4, 6 and 24 hours, rapidly filtered (0.22 μm filter) and analyzed for salicylic acid by HPLC.
Samples of Example 1 and 2 and Comparative Example 1 were placed in artificial sweat or artificial sweat plus proteins and incubated at 35° C. for 3 to 5 minutes, 1, 2, 4, 6 and 24 hours, rapidly filtered (0.22 μm filter) and analyzed for salicylic acid by HPLC.

[2] = Particle size determination by light scattering; format: physicochemical; conditions: for Average % of particles below 10 μm / Average % of particles below 100 μm / Average % of particles below 200 μm: average of 3 samples; for Volume Mean Particle Diameter: light scattering
From the text: Light scattering techniques were employed to assess the particle size distributions of samples of the compositions of Examples 1 and 2 and Comparative Example 1.

[3] = tested on: human derived Staphylococcus epidermidis; test: Minimum Inhibitory Concentration (MIC) assessment, Staph epidermidis; format: cell-based; conditions: for antibacterial activity (in words): MIC test, summary of Table 3; for MIC: Staphylococcus epidermidis, 24 hours, particle suspensions in water, read-out: MIC versus Staph epidermidis
Experimental: (§1) Samples of Examples 1 and 2 and Comparative Example 1 were evaluated in two different bacterial growth assays. The first test was a standard Minimum Inhibitory Concentration (MIC) assessment involving serial dilution of test compound particle suspensions in water. In this test, the samples were evaluated at 24 hours against human derived Staphylococcus epidermidis and Corynebacter sp. form organisms. The second test utilized a Biosys® system to assess the effect of the samples added as a dry powder directly to a nutrient broth containing either human derived Staph epidermidis or a mixed Coryne/Staph milieu. In the case of the Biosys test, the bacteria laced nutrient broth alone was used as the negative control.

[4] = tested on: human derived Staph epidermidis; test: Biosys bacterial growth test, Staph epidermidis; format: cell-based, Staphylococcus epidermidis; conditions: for % Red (average reduction in bacterial growth rates): 24 hours
Experimental: as §1

[5] = tested on: mixed Coryne/Staph milieu; test: Biosys bacterial growth test, mixed Coryne/Staph; format: cell-based, Corynebacter/Staph; conditions: for % Red (average reduction in bacterial growth rates): 24 hours
Experimental: as §1

[6] = Hydrolytic release of salicylic acid in buffer at 32° C., HPLC; format: physicochemical; conditions: acetate buffer pH 5.5, 32° C.
Experimental: Examples 1, 3 and 4 (both A & B) and Comparative Examples 1 and 2 were evaluated for rate of release of salicylic acid. Samples were hydrolyzed at 32° C. using acetate buffer (pH 5.5) as relevant condition for typical skin pH. The materials were placed in 50 mL centrifuge tubes for elution using conventional elution protocols, shaking the tubes in a thermostatic environment. Aliquots were taken from the tubes at periodic intervals and immediately placed in a vial and analyzed by HPLC as soon as they were removed from the hydrolysis vessel.
The respective salicylic acid release rates of the Example 4A and Example 4B at pH 5.5 are compared in FIG. 5. The rates of Example 4B at pH of 5.5 and 7.29 are compared in FIG. 6.

[7] = tested on: Corynebacter sp. form organisms; test: Minimum Inhibitory Concentration (MIC) assessment, Coryne form; format: cell-based; conditions: 24 hours, particle suspensions in water; read-out: MIC versus Coryne form
Experimental: as §1

O=C(COCCOCC(=O)Oc1ccccc1C(=O)O)Oc1ccccc1C(=O)O [Example 2, Bis(2-carboxyphenyl)-3,6-dioxaoctanedioate]
salicylic acid release rate (in words) [1]: rapid initial | Salicylic Acid Release (Weight Percent of Maximum Release) ([1]; 0.05 hrs): 35.25 Weight Percent of Maximum Release | Salicylic Acid Release (Weight Percent of Maximum Release) ([1]; 1 hr): 47.44 Weight Percent of Maximum Release | Salicylic Acid Release (Weight Percent of Maximum Release) ([1]; 2 hrs): 44.85 Weight Percent of Maximum Release | Salicylic Acid Release (Weight Percent of Maximum Release) ([1]; 4 hrs): 46.07 Weight Percent of Maximum Release | Salicylic Acid Release (Weight Percent of Maximum Release) ([1]; 6 hrs): 51.20 Weight Percent of Maximum Release | Salicylic Acid Release (Weight Percent of Maximum Release) ([1]; 24 hrs): 58.23 Weight Percent of Maximum Release | Particle size distribution, Comments [2]: Bimodal size | Average % of particles below 10 μm [2]: 37.54% | Average % of particles below 100 μm [2]: 80.89% | Average % of particles below 200 μm [2]: 99.39% | Volume Mean Particle Diameter [2]: 48.82 μm | antibacterial activity (in words) [3]: modest | MIC [3]: ~2500 µg/mL (≈ 5.98 mM) | % Red (average reduction in bacterial growth rates) ([4]; 0.25 mg/ml): 0% | % Red (average reduction in bacterial growth rates) ([4]; 0.5 mg/ml): 0% | % Red (average reduction in bacterial growth rates) ([4]; 2.5 mg/ml): 50% | % Red (average reduction in bacterial growth rates) ([4]; 5 mg/ml): 100% | % Red (average reduction in bacterial growth rates) ([4]; 50 mg/ml): 100% | % Red (average reduction in bacterial growth rates) ([5]; 0.25 mg/ml): 5% | % Red (average reduction in bacterial growth rates) ([5]; 0.5 mg/ml): 0% | % Red (average reduction in bacterial growth rates) ([5]; 2.5 mg/ml): 100% | % Red (average reduction in bacterial growth rates) ([5]; 5 mg/ml): 100% | % Red (average reduction in bacterial growth rates) ([5]; 50 mg/ml): 100%

O=C(COCC(=O)Oc1ccccc1C(=O)O)Oc1ccccc1C(=O)O [Example 1, Bis(2-carboxyphenyl)diglycolate]
salicylic acid release rate (in words) [1]: rapid initial | Salicylic Acid Release (Weight Percent of Maximum Release) ([1]; 0.05 hrs): 20.035 Weight Percent of Maximum Release | Salicylic Acid Release (Weight Percent of Maximum Release) ([1]; 1 hr): 45.525 Weight Percent of Maximum Release | Salicylic Acid Release (Weight Percent of Maximum Release) ([1]; 2 hrs): 54.910 Weight Percent of Maximum Release | Salicylic Acid Release (Weight Percent of Maximum Release) ([1]; 4 hrs): 59.795 Weight Percent of Maximum Release | Salicylic Acid Release (Weight Percent of Maximum Release) ([1]; 6 hrs): 54.890 Weight Percent of Maximum Release | Salicylic Acid Release (Weight Percent of Maximum Release) ([1]; 24 hrs): 64.520 Weight Percent of Maximum Release | Average % of particles below 10 μm [2]: 11.87% | Average % of particles below 100 μm [2]: 91.69% | Average % of particles below 200 μm [2]: 99.58% | Volume Mean Particle Diameter [2]: 45.64 μm | antibacterial activity (in words) [3]: strongest | MIC [3]: 200 to 1000 µg/mL (≈ 0.534 to 2.67 mM) | % Red (average reduction in bacterial growth rates) ([4]; 0.25 mg/ml): 10% | % Red (average reduction in bacterial growth rates) ([4]; 0.5 mg/ml): 95% | % Red (average reduction in bacterial growth rates) ([4]; 2.5 mg/ml): 100% | % Red (average reduction in bacterial growth rates) ([4]; 5 mg/ml): 100% | % Red (average reduction in bacterial growth rates) ([4]; 50 mg/ml): 100% | antibacterial activity (in words) ([4]; Biosys, summary of Table 4): strongest | time until hydrolysis is complete [6]: 2.5 h | MIC [7]: ~200 µg/mL (≈ 0.534 mM) | % Red (average reduction in bacterial growth rates) ([5]; 0.25 mg/ml): 66% | % Red (average reduction in bacterial growth rates) ([5]; 0.5 mg/ml): 29% | % Red (average reduction in bacterial growth rates) ([5]; 2.5 mg/ml): 100% | % Red (average reduction in bacterial growth rates) ([5]; 5 mg/ml): 100% | % Red (average reduction in bacterial growth rates) ([5]; 50 mg/ml): 100% | antibacterial activity (in words) ([5]; Biosys, summary of Table 5): strongest

O=C(CCCCC(=O)Oc1ccccc1C(=O)O)Oc1ccccc1C(=O)O [Comparative Example 1, Bis(2-carboxyphenyl)adipate, reference compound]
salicylic acid release rate (in words) [1]: more moderate | Salicylic Acid Release (Weight Percent of Maximum Release) ([1]; 0.05 hrs): 1.46 Weight Percent of Maximum Release | Salicylic Acid Release (Weight Percent of Maximum Release) ([1]; 1 hr): 4.93 Weight Percent of Maximum Release | Salicylic Acid Release (Weight Percent of Maximum Release) ([1]; 2 hrs): 6.03 Weight Percent of Maximum Release | Salicylic Acid Release (Weight Percent of Maximum Release) ([1]; 4 hrs): 6.81 Weight Percent of Maximum Release | Salicylic Acid Release (Weight Percent of Maximum Release) ([1]; 6 hrs): 10.06 Weight Percent of Maximum Release | Salicylic Acid Release (Weight Percent of Maximum Release) ([1]; 24 hrs): 26.42 Weight Percent of Maximum Release | Average % of particles below 10 μm [2]: 32.1% | Average % of particles below 100 μm [2]: 96.03% | Average % of particles below 200 μm [2]: 99.99% | Volume Mean Particle Diameter [2]: 28.85 μm | antibacterial activity (in words) [3]: little or no | MIC [3]: > 1670 µg/mL | % Red (average reduction in bacterial growth rates) ([4]; 0.25 mg/ml): 0% | % Red (average reduction in bacterial growth rates) ([4]; 0.5 mg/ml): 57% | % Red (average reduction in bacterial growth rates) ([4]; 2.5 mg/ml): 63% | % Red (average reduction in bacterial growth rates) ([4]; 5 mg/ml): 100% | % Red (average reduction in bacterial growth rates) ([4]; 50 mg/ml): 100% | hydrolysis completion ([6]; in four days): about 90% | MIC [7]: > 1670 µg/mL | % Red (average reduction in bacterial growth rates) ([5]; 0.25 mg/ml): 0% | % Red (average reduction in bacterial growth rates) ([5]; 0.5 mg/ml): 5% | % Red (average reduction in bacterial growth rates) ([5]; 2.5 mg/ml): 6% | % Red (average reduction in bacterial growth rates) ([5]; 5 mg/ml): 100% | % Red (average reduction in bacterial growth rates) ([5]; 50 mg/ml): 100%
